{"source": "patent US9913858B2", "about": "“Prevention and treatment of toxicosis” (priority 2013, dated 2018)", "key": {"[1]": {"assay": "Serum and cerebrospinal fluid bromide concentrations in the sheep trial", "type": "in vivo", "details": "sheep, sheep", "method": "Venous blood samples collected for biochemical analysis and haematocrit (PCV), and urine for USG, at three specific time points during the experiment for all animals: 1) on entry to the trial; 2) on date of entry to the end of trial protocol and, 3) on day of necropsy.\nA full clinical examination was performed prior to euthanasia. At euthanasia, 100 I.U. heparin (Provet Riverina Pty Ltd) was injected into the jugular vein, followed shortly by Lethabarb (20 mL/40 kg LW). Immediately after euthanasia, the ventral articulation of C1 was exposed and cerebrospinal fluid (CSF) collected using a 23 g needle. The head was then removed and subjected to perfusion fixation. Briefly, the carotid arteries were exposed and a small catheter inserted and ligated to secure the perfusion lines. Two liters of 0.1% phosphate buffered saline (PBS) containing 3000 I.U of heparin/L was then slowly perfused via the ligated vessels at a pressure of 90 mm Hg using a Microgon peristaltic Pump (Microgon, Laguna Hills, Calif.). Once complete this was replaced with 4% paraformaldehyde (Sigma-Alrich) in 0.1% PBS and a further two liters allowed to perfuse slowly through the tissues of the head. Once complete, catheters were removed and the whole head placed at 4° C. overnight to complete fixation. Twenty-four hours post perfusion fixation the brain was removed from the skull and placed in 10% formal saline for storage until dissection for processing to wax sections.\nAbsorbance was measured with a spectrophotometer at 440 nm. […] The lower limit of quantification (LOQ) was 25 μg/mL."}, "sheep": {"tested_on": "sheep", "details": "120 mg/kg bromide", "method": "KBr solution was administered via an orogastric tube, then flushed with 500 mL water. Blood samples were collected at 0, 1, 2, 3, 4, 6, 8, 10, 12, 24 h, then at 12 h intervals to 240 h, then at 24 h intervals to 336 h. A final sample was taken at 504 h. When collecting blood samples at 1 h through to 10 h the rumen was auscultated, over the caudo-dorsal blind sack, to determine if the high salt load affected rumen motility."}, "[2]": {"tested_on": "lolitrem B toxicosis (Rye Grass Staggers)", "assay": "Clinical and neurological signs in sheep fed lolitrem B-containing toxic feed with or without potassium bromide", "type": "in vivo", "details": "sheep, Group 5: prophylactic oral KBr only", "method": "Animals were exposed to a controlled diet containing 0.16 mg/kg body weight (BW) lolitrem B toxin rising to 0.27 mg/kg BW after 21 days exposure to toxic feed. Toxin was delivered as perennial rye grass seed (GA66 AR98, Grasslanz Technology Ltd, NZ) containing very high levels of lolitrem B toxin (11 ppm DM) as a component of the animal's feed intake.\nOn entry to the trial, all animals receiving toxic feed were exposed to a diet containing experimental ryegrass seed with a final lolitrem B concentration of 0.08 mg/kg LW, lucerne chaff and molasses 30% w/v for 3 days. After this induction period, the toxin content of the feed was increased to 0.16 mg/kg LW for the duration of the trial. […] Ryegrass seed constituted up to 65% of available Feed on Offer (FOO) by dry weight contributing a metabolisable energy of 12.1 Mj/kg DM.\nAt entry to the trial, all animals were subjected to a full clinical examination. Live weight was recorded. Venous blood and urine samples were collected for laboratory. Animals were also subjected to gait analysis, neurological examination including proprioceptive testing, cranial nerve examination and papillary light and menace reflexes. Electromyography (EMG) of tricep and neck muscles was performed. Gait analysis (see below) was repeated at three day intervals until onset of significant clinical signs and/or gait abnormality at which point animals were subjected to gait analysis daily. Gait analysis was recorded on video each occasion.\nGeneral clinical signs were also noted on a daily basis; these included observations of nervousness or agitation, changes in normal placement of body, limb or head position changes in faecal consistency, feeding behaviour or water consumption, observeable tremor of the body or head, eye position (strabismus) and movement (nystagmus), locomotory disturbances, or any other clinical changes worthy of note. Feed and water intake was monitored daily for the duration of the trial. Heart rate, respiration rate at rest and rectal temperature were also monitored daily.\nProphylactic sheep received a split loading dose of 300 mg/kg on day 1, 120 mg/kg (100 mg LD+20 mg/kg daily maintenance dose) on day 2, 120 mg/kg on day 3 and 20 mg/kg daily for the duration of the trial. An acute treatment dose of 300 mg/kg LW was used for the trial. Both prophylactic and acute treatment doses were envisaged to give serum concentrations of 750 to 1000 μg/ml for the duration of the initial weeks of the trial.\nGroup 1—Negative Control: lucerne chaff only;\nGroup 2—Positive Control: lucerne chaff containing 0.16 mg/kg LW lolitrem B;\nProphylactic treatment sheep (Groups 4 & 5) received a split loading dose of 300 mg/kg on day 1 of the trial, 120 mg/kg (100 mg LD 20 mg/kg daily maintenance dose) on day 2, 120 mg/kg on day 3 and 20 mg/kg daily thereafter. Acute therapy sheep were dosed with a single dose of 300 mg/kg on day of falling.\nEnd of the trial was defined for Groups 2 and 3 as date of falling. Group 1 animals entered the end of trial protocol with their Group 2 counterparts. Group 4 and 5 animals entered the end of trial protocol after 22 days. This end of trial protocol consisted of the following analysis: • On Day 1: animals were subjected to a full clinical examination, gait analysis, urine and blood collection, neurological examination and EMG. • On Day 2: further gait analysis was recorded, • On Day 3: animals were again subjected to full clinical examination, gait analysis, urine and blood collection, neurological examination and EMG as well as live weight recorded prior to necropsy."}, "[3]": {"tested_on": "lolitrem B toxicosis (Rye Grass Staggers)", "assay": "Gait analysis and time to falling", "type": "in vivo, sheep", "method": "Gait analysis was performed on entry to the trial and at designated time points throughout the trial as described above. To achieve this, animals were moved from their individual pens to an external yard in their cohort groups (five animals, one from each treatment). Animals were then encouraged to move at a run, initially in a group and then individually, for a minimum of three minutes per animal whilst their movement was captured on video and gait observations recorded.\nOnce all animals had been analysed the whole cohort was returned to their individual pens. Gait abnormalities such as stumbling, falling or disorientation were noted, including observation of Type 1 or Type 2 gait changes as described in Combs et, al., (2014). Type I movement disorder is defined as an impaired alternating movement (dysdiadochokinesia), bunny-hopping gait and failure to maintain an appropriate direction. Type 2 movement disorder is defined by increasing rigidity of limbs on forced movement resulting finally in tonic fore and hind limb extension with the animal collapsing into sternal or lateral recumbency (Combs, Rendell et at 2014). Scores between those denoted above were considered as a gradation between the stated clinical observations. Analysis of gait was performed using the following scale in Table 2 and a composite score noted for each animal for each day during the end of trial protocol. A total score out of 30 was determined for each animal. The higher the score the greater the locomotory disturbance. Time to falling was determined post trial by analysis of video material,\nAnimals that met the entry criteria (severe Type 2 gait abnormality and falling) were submitted to the end-of-trial protocol. […] Animals were subjected to the following tests on days 1 and 3: gait analysis, full neurological examination, venous blood and urine sampling and EMG. Only gait analysis was performed on day 2."}}, "data": [{"smiles": "Br", "note": "[bromide]", "values": [{"measurement": "Kp at 48 hours", "setting": "[1]; cerebrospinal fluid and serum, oral, 300 mg/kg, mean ratio of serum bromide:CSF bromide, Group 3, acute bromide treatment plus lolitrem B, 48 hours", "result": 0.81}, {"measurement": "Kp at 22 days", "setting": "[1]; cerebrospinal fluid and serum, oral, mean ratio of serum bromide:CSF bromide, Group 4, bromide prophylactic treatment plus lolitrem B", "result": 0.91}, {"measurement": "Kp at 22 days", "setting": "[1]; cerebrospinal fluid and serum, oral, mean ratio of serum bromide:CSF bromide, Group 5, bromide prophylactic controls", "result": 0.74}, {"measurement": "serum bromide, factor Group 4 over Group 5", "setting": "[1]; prophylactic bromide plus lolitrem B versus prophylactic bromide alone, 22 days", "result": 1.27}, {"measurement": "adverse reactions", "setting": "sheep; either treatment group (IV, PO)", "result": "No adverse reactions were noted"}, {"measurement": "tranquilising effect, subjective observation", "setting": "sheep; IV group", "result": "mild tranquilising effect"}, {"measurement": "neurological effects", "setting": "sheep; PO group", "result": "no discernable neurological effects"}, {"measurement": "rumen motility", "setting": "sheep; PO group", "result": "no observed alteration"}, {"measurement": "animals showing evidence of mild anxiolysis", "setting": "[2]", "result": 519}, {"measurement": "Altered stance, number of animals affected", "setting": "[2]; no toxic feed, 22 days", "result": 4}, {"measurement": "Fine tremor, number of animals affected", "setting": "[2]; no toxic feed, 22 days", "result": "one"}, {"measurement": "time to falling", "setting": "[3]; printed as Group 2 Day 2, 24 hours after single oral dose of bromide 300 mg/kg LW", "result": "145.66 ± 22.07", "unit": "s"}, {"measurement": "time to falling", "setting": "[3]; printed as Group 2 Day 3, 48 hours after single oral dose of bromide 300 mg/kg LW", "result": "124.75 ± 22.06", "unit": "s"}, {"measurement": "time to falling", "setting": "[3]; printed as Group 2 day 1, intoxicated sheep before single oral dose of bromide 300 mg/kg LW", "result": 52.44, "unit": "s"}]}]}
